Tests used:
Assay type in all cases: in vivo, mouse
normal mice [1] = test: Forced swim test in normal mice; conditions: normal male C57BL/6J mice, 30 mg/kg i.p., 60 min after administration, 6 min swim
Description: The effects of PA-8 and PA-81004 on normal mice were evaluated by a forced swim test (test that exploits the switch of mice caused to swim in an inevitable environment from active escape behavior to a passive state of floating or immobility; in this test, depressive-like behavior is evaluated by placing the mice in an acrylic cylinder of 20 cm in diameter and 25 cm in height filled with water (water temperature: 25° C.) up to a depth of 15 cm, and measuring a passive floating or immobility time).
(§1) Male C57BL/6J mice (8 to 12 weeks old) were acclimatized to a laboratory (illuminance: 200 lx) for 60 minutes. Then, a vehicle (10% DMSO solution; dissolved in saline; n=9), PA-8 (30 mg/kg; n=9) or PA-81004 (30 mg/kg; n=9) was intraperitoneally administered thereto (0.1 mL/10 g). After a lapse of 60 minutes after administration, the mice were forced to swim for 6 minutes, and an immobility time was measured.
The effects of PA-9 and PA-915 on normal mice were evaluated by the forced swim test.
as §1, with “n=10), PA-9” for “n=9), PA-8”, “PA-915” for “PA-81004”

[2] = tested on: single-restraint stress mice; test: Single-restraint stress-induced anxiety-like behavior, light-dark test; conditions: 30 mg/kg i.p. 30 min before 30 min restraint; 10 min test
Description: Male C57BL/6J mice (8 to 12 weeks old) were acclimatized to a laboratory (illuminance: 330 lx) for 60 minutes. Then, a vehicle (10% DMSO solution; dissolved in saline; n=9), PA-8 (30 mg/kg; n=9) or PA-81004 (30 mg/kg; n=10) was intraperitoneally administered thereto (0.1 mL/10 g). After a lapse of 30 minutes after administration, restraint stress (stress caused by holding the mice in tubes of 2.8 cm in diameter with a hole for breathing) was applied thereto for 30 minutes. The light-dark test (10 min) was conducted from immediately after the completion of restraint. Mice that freely behaved in a home cage for 30 minutes without being held and without accessing water and food were used as a control (n=12). The results are shown in FIG. 10 (A: time spent in the light box, B: the number of transitions between the light and dark boxes; light box illuminance: 330 lx). The data was indicated by mean±standard error. **P<0.01, *P<0.05 (One-way ANOVA followed by Tukey-Kramer test). […] Male C57BL/6J mice (8 to 12 weeks old) were acclimatized to a laboratory (illuminance: 330 lx) for 60 minutes. Then, a vehicle (10% DMSO solution; dissolved in saline; n=11), PA-9 (30 mg/kg; n=8) or PA-915 (30 mg/kg; n=9) was intraperitoneally administered thereto (0.1 mL/10 g). After a lapse of 30 minutes after administration, restraint stress (stress caused by holding the mice in tubes of 2.8 cm in diameter with a hole for breathing) was applied thereto for 30 minutes. The light-dark test (10 min) was conducted from immediately after the completion of restraint. Mice that freely behaved in a home cage for 30 minutes without being held and without accessing water and food were used as a control (n=11). The results are shown in FIG. 12 (A: time spent in the light box, B: the number of transitions between the light and dark boxes; light box illuminance: 330 lx). The data was indicated by mean±standard error. **P<0.01, *P<0.05 (One-way ANOVA followed by Tukey-Kramer test).

normal mice [3] = test: Elevated plus maze test in normal mice; conditions: normal male C57BL/6J mice, 30 mg/kg i.p., 60 min after administration, 5 min test
Description: The effects of PA-8 and PA-81004 on normal mice were evaluated by an elevated plus maze test (test that exploits the properties of mice to avoid heights and prefer to stay near walls; in this test, anxiety-like behavior is evaluated by placing the mice at the center of a maze disposed at a height of 50 cm in which a 26 cm long and 8 cm wide open arm without walls and a closed-arm with walls are disposed in a cross shape, and measuring a time spent in the open arm and the number of entries thereto).
Male C57BL/6J mice (8 to 12 weeks old) were acclimatized to a laboratory (illuminance: 50 lx) for 60 minutes. Then, a vehicle (10% DMSO solution; dissolved in saline; n=13), PA-8 (30 mg/kg; n=12) or PA-81004 (30 mg/kg; n=12) was intraperitoneally administered thereto (0.1 mL/10 g). After a lapse of 60 minutes after administration, the test was conducted for 5 minutes. The results are shown in FIG. 3 (A: total distance traveled, B: the number of open arm (course without walls) entries, C: time spent in the open arm).
The effects of PA-9 and PA-915 on normal mice were evaluated by the elevated plus maze test.
Male C57BL/6J mice (8 to 12 weeks old) were acclimatized to a laboratory (illuminance: 50 lx) for 60 minutes. Then, a vehicle (10% DMSO solution; dissolved in saline; n=8), PA-9 (30 mg/kg; n=8) or PA-915 (30 mg/kg; n=7) was intraperitoneally administered thereto (0.1 mL/10 g). After a lapse of 60 minutes after administration, the test was conducted for 5 minutes. The results are shown in FIG. 7 (A: total distance traveled, B: the number of open arm entries, C: time spent in the open arm).

| Structure (SMILES) | pharmacological action in forced swim test (immobility time) (normal mice [1]) | effect on single-restraint stress-induced anxiety-like behavior (light-dark test) [2] | pharmacological action in elevated plus maze test (total distance, open arm entries, time in open arm) (normal mice [3]) |
| --- | --- | --- | --- |
| C=CCOc1ccc(C2CC(=O)Nc3nc(N)[nH]c(=O)c32)cc1OC (stereo not drawn) [PA-8] | no pharmacological action | improving effects | no pharmacological action |
| O=C(NCCc1c[nH]cn1)C1CC(=O)N(c2n[nH]c3ccccc23)C1 (stereo not drawn) [PA-9] | no pharmacological action | improving effects | no pharmacological action |
| Nc1nc2c(c(=O)[nH]1)C(c1cccc(OC(F)(F)F)c1)CC(=O)N2 (stereo not drawn) [PA-81004, 2-Amino-5-(3-trifluoromethoxyphenyl)-5,8-dihydro-3H,6H-pyrido[2,3-d]pyrimidine-4,7-dione] | no pharmacological action | improving effects | no pharmacological action |
